The test system of assay [1] is RTV-1033 patient virus (RT V106A, V189L, F227L). Kind of assay: Phenotypic susceptibility assay, RTV-1033 (patient 98-1033). In kind it is cell-based, HIV-1. Here is the method:
(§1) Transfections were performed using a calcium-phosphate precipitation procedure. […] Cell lysates were assayed for luciferase activity (FIG. 3). […] The drug inhibition curves are shown in (FIG. 3).

For assay [2], the system named is HIV-1 reverse transcriptase P236L (P236L-RTV). As to the kind of experiment: Phenotypic susceptibility assay, site directed mutant P236L-RTV. The settings on record: P236L alone versus wild type reference RTV. In kind it is cell-based. The method, then:
as §1
(§2) Resistance test vectors were constructed containing the P236L mutation alone and in combination with other known drug resistance mutations (K103N, Y181C) that are known to modulate the susceptibility of HIV-1 to NNRTIs. […] The P236L mutation was also introduced into a RTV containing mutations at K103N, Y181C or both (K103N+Y181C).

The subject of assay [3] is HIV-1 reverse transcriptase P236L plus K103N, Y181C or both. Kind of assay: Phenotypic susceptibility assay, P236L with K103N, Y181C or K103N+Y181C. Format: cell-based. The settings on record: P236L added to K103N, Y181C or K103N+Y181C versus corresponding RTV lacking P236L. Here is the method: as §1, §2
In assay [4] the test system is HIV-1 reverse transcriptase G190A (G190A-RTV). Kind of assay: Phenotypic susceptibility assay, site directed mutant G190A-RTV. In kind it is cell-based. The settings on record: G190A-RTV. The method, then: (§3) Resistance tests were carried out with resistance test vectors using two host cell types. Resistance test vector viral particles were produced by a first host cell (the resistance test vector host cell) that was prepared by transfecting a packaging host cell with the resistance test vector and the packaging expression vector. The resistance test vector viral particles were then used to infect a second host cell (the target host cell) in which the expression of the indicator gene is measured.
(§4) The resistance test vectors containing a functional luciferase gene cassette were constructed and host cells were transfected with the resistance test vector DNA. The resistant test vectors contained patient-derived reverse transcriptase and protease sequences that were either susceptible or resistant to the antiretroviral agents, such as nucleoside reverse transcriptase inhibitors, non-nucleoside reverse transcriptase inhibitors and protease inhibitors. The resistance test vector viral particles produced by transfecting the resistance test vector DNA into host cells, either in the presence or absence of protease inhibitors, were used to infect target host cells grown either in the absence of NRTI or NNRTI or in the presence of increasing concentrations of the drug. The amount of luciferase activity produced in infected target host cells in the presence of drug was compared to the amount of luciferase produced in infected target host cells in the absence of drug. Drug resistance was measured as the amount of drug required to inhibit by 50% the luciferase activity detected in the absence of drug (inhibitory concentration 50%, IC50). The IC50 values were determined by plotting percent drug inhibition vs. log10 drug concentration.
(§5) Host cells were seeded in 10-cm-diameter dishes and were transfected several days after plating with resistance test vector plasmid DNA and the envelope expression vector. Transfections were performed using a calcium-phosphate precipitation procedure. The cell culture media containing the DNA precipitate was replaced with fresh medium, from one to 24 hours, after transfection. […] HIV capsid protein (p24) levels in the harvested cell culture media were determined by an EIA method as described by the manufacturer (SIAC; Frederick, Md.). […] The inhibitory effect of the drug was determined using the following equation: % luciferase inhibition=1-(RLUluc[drug]÷RLUluc)×100 where RLUluc [drug] is the relative light unit of luciferase activity in infected cells in the presence of drug and RLUluc is the Relative Light Unit of luciferase activity in infected cells in the absence of drug. […]

For assay [5], the system named is HIV-1 reverse transcriptase Y181I (Y181I-RTV). As to the kind of experiment: Phenotypic susceptibility assay, site directed mutant Y181I-RTV. The settings on record: >1 loss of susceptibility. In kind it is cell-based. Here is the method: as §3
as §4, with “The amount of luciferase activity produced in infected target host cells in the presence of drug was compared to the amount of luciferase produced in infected target host cells in the absence of drug. Drug resistance was measured as the amount of drug required to inhibit by 50% the luciferase activity detected in the absence of drug (inhibitory concentration 50%, IC50).” left out
as §5, with “vector.” for “vector. Transfections were performed using a calcium-phosphate precipitation procedure. The cell culture media containing the DNA precipitate was replaced with fresh medium, from one to 24 hours, after transfection.”

Assay [6] concerns HIV-1 reverse transcriptase A98G (A98G-RTV). As to the kind of experiment: Phenotypic susceptibility assay, site directed mutant A98G-RTV. Format: cell-based. As to conditions: >1 loss of susceptibility. The method, then:
as §3
as §4, with “The amount of luciferase activity produced in infected target host cells in the presence of drug was compared to the amount of luciferase produced in infected target host cells in the absence of drug. Drug resistance was measured as the amount of drug required to inhibit by 50% the luciferase activity detected in the absence of drug (inhibitory concentration 50%, IC50).” left out
as §5, with “vector.” for “vector. Transfections were performed using a calcium-phosphate precipitation procedure. The cell culture media containing the DNA precipitate was replaced with fresh medium, from one to 24 hours, after transfection.”

Assay [7] relates to HIV-1 reverse transcriptase A98G + G190S (A98G-G190S-RTV). As to the kind of experiment: Phenotypic susceptibility assay, site directed mutant A98G-G190S-RTV. In kind it is cell-based. The settings on record: >1 loss, <1 increased susceptibility. The method, then:
as §3
as §4, with “The amount of luciferase activity produced in infected target host cells in the presence of drug was compared to the amount of luciferase produced in infected target host cells in the absence of drug. Drug resistance was measured as the amount of drug required to inhibit by 50% the luciferase activity detected in the absence of drug (inhibitory concentration 50%, IC50).” left out
as §5, with “vector.” for “vector. Transfections were performed using a calcium-phosphate precipitation procedure. The cell culture media containing the DNA precipitate was replaced with fresh medium, from one to 24 hours, after transfection.”

Assay [8] concerns HIV-1 reverse transcriptase Y181C (Y181C-RTV). As to the kind of experiment: Phenotypic susceptibility assay, site directed mutant Y181C-RTV. Format: cell-based. The settings on record: Y181C-RTV; >1 loss of susceptibility. Here is the method: as §3
as §4, with “The amount of luciferase activity produced in infected target host cells in the presence of drug was compared to the amount of luciferase produced in infected target host cells in the absence of drug. Drug resistance was measured as the amount of drug required to inhibit by 50% the luciferase activity detected in the absence of drug (inhibitory concentration 50%, IC50).” left out
as §5, with “vector.” for “vector. Transfections were performed using a calcium-phosphate precipitation procedure. The cell culture media containing the DNA precipitate was replaced with fresh medium, from one to 24 hours, after transfection.”

The test system of assay [9] is HIV-1 reverse transcriptase Y181C + A98G (Y181C-A98G-RTV). As to the kind of experiment: Phenotypic susceptibility assay, site directed mutant Y181C-A98G-RTV. In kind it is cell-based. The settings on record: >1 loss of susceptibility. Here is the method: as §3
as §4, with “The amount of luciferase activity produced in infected target host cells in the presence of drug was compared to the amount of luciferase produced in infected target host cells in the absence of drug. Drug resistance was measured as the amount of drug required to inhibit by 50% the luciferase activity detected in the absence of drug (inhibitory concentration 50%, IC50).” left out
as §5, with “vector.” for “vector. Transfections were performed using a calcium-phosphate precipitation procedure. The cell culture media containing the DNA precipitate was replaced with fresh medium, from one to 24 hours, after transfection.”

Values joined by “and” are separate entries in the source; they are usually repeats but may differ in a detail not shown here. Equal entries are not always repeated.

Regarding `O=C1Nc2ccc(Cl)cc2[C@@](C#CC2CC2)(C(F)(F)F)O1` [efavirenz], the decrease in susceptibility in assay [1] is 200 fold. Further, the “change in susceptibility” value is on record as “no effect” in assay [2] and “restores a significant portion of the loss of susceptibility” in assay [3]. Also, the “fold change in susceptibility compared to wild type control RTV” value in [4] was 8 fold; in assay [5], 1.4 fold; in assay [6], 3 fold; in assay [7] it was “greater than 250 fold”; in [8], 3 fold and 4 fold; in assay [9], 7 fold.

The values above are taken from US20050130134A1, “Means and methods for monitoring non-nucleoside reverse transcriptase inhibitor antiretroviral therapy and guiding therapeutic decisions in the treatment HIV-AIDS” (ViroLogic, Inc., priority 2000, published 2005).
